Legend:
Type in all cases: in vivo
“Momotaro” tomato [1] = test: Example 1 salt stress tolerance imparting test (tomato, hydroponic, Otsuka 1/2A + NaCl); conditions: 2 weeks
Experimental: (1) Salt stress-free test conditions: NaCl concentration (water potential by Nan): 0 ppm (0 MPa). Other cultivation conditions were as the same as the conditions of the drying stress test.
When the leaves in the 2-leaf stage fully unfolded, the soil on the tomato roots was carefully washed away with running water, and a test was performed.
Method of Salt Stress Tolerance Imparting Test
The environmental conditions in a climatic chamber were controlled so as to have a temperature of 23° C., an illuminance by a fluorescent light of 5000 Lux, and a daily light-dark cycle of a 16-hour light period and an 8-hour dark period. […] A treatment solution containing a compound of Table 1 in a specific concentration (the remainder was water) was prepared and sprayed onto the leaves or applied to the underground portion. In addition, a control plot to which no NaCl was added, not imposing a salt stress (this is a control plot for plant body weight 2 for Formula (ii) and is a stress-free control plot) and a control plot to which NaCl was added in various concentrations, imposing a salt stress, and to which the treatment solution was not applied (this is a control plot for plant body weight 1 for Formula (ii) and is a control plot including a salt stress) were prepared as controls. Ten specimens were prepared for each of the test plot and the control plots, and a plant stress level and an extent of imparting plant stress tolerance were calculated according to Formulas (II) above using as a fresh plant body weight the average of the fresh plant body weights of each specimen 2 weeks after the beginning of the test.

“Momotaro” tomato [2] = test: Standard test: standard extent of imparting plant salt stress tolerance; conditions: 100 ppm sprayed onto leaves 10 ml/specimen, NaCl 3510 ppm in tap water, fresh weight after 2 weeks vs salt-stressed untreated control plot 1
Experimental: Standard Test (I) Plant Preparation A 50-cell tray is filled with potting soil (fertilizer components: N:P:K=0.4:1.9:0.6 (g)/kg potting soil); and seeds of a “Momotaro” tomato (Takii Co., Ltd.) are sowed, thinly covered with potting soil, and sufficiently irrigated to allow the seeds to sprout. When the leaves in the 2-leaf stage are fully unfolded, the soil on the tomato roots is washed away with running water, and a test is performed. For the potting soil, Kureha gardening soil manufactured by Kureha Corporation may be used. (II) Test Condition Setting The environmental conditions are controlled such that the temperature is 23° C., the relative humidity is 50%, the illuminance is 5000 Lux, and the daily light-dark cycle includes a 16-hour light period and an 8-hour dark period. Such environmental conditions can be obtained by, for example, controlling the temperature in a room or a climate chamber where the temperature and the relative humidity can be controlled, and controlling illuminance by a fluorescent light or the like. […] (III) Treatment with Plant Stress Tolerance Imparting Composition […] A known surfactant or a like material that barely affects the plant may be used in the preparation of an aqueous dispersion. Test plot: An aqueous solution or an aqueous dispersion of a test compound (sugar derivative-type surfactant) (concentration: 100 ppm) is sprayed onto the leaves in an amount of 10 ml per tomato specimen. […] NaCl is added to a solution culture medium (creating a salt stress), but no test compound (plant stress tolerance imparting composition) is given to the tomato. Control plot 2: No NaCl is added to a solution culture medium (creating no salt stress), and no test compound (plant stress tolerance imparting composition) is given to the tomato. (IV) Calculation of Standard Extent of Imparting Plant Salt Stress Tolerance (%) […] The plant stress level (standard plant salt stress level) attained in the above-described standard test is about 130%. In this regard, the standard plant salt stress level can be calculated according to Formula (ii)′ below.

“Momotaro” tomato [3] = test: Example 3 drying stress tolerance imparting test (tomato); conditions: 3 weeks
Experimental: Other cultivation conditions were as with the conditions of the drying stress test. Drying stress conditions: soil pF value: 2.3, 2.5, or 2.9, cultivation temperature: 23° C., relative humidity: 50%, illuminance: 5000 Lux (fluorescent light), light/dark cycle: 16 hours/8 hours (2) Cultivation period: 3 weeks (3) Soil: Kureha gardening soil manufactured by Kureha Corporation (fertilizer components: N:P:K=0.4:1.9:0.6 g/kg soil) (4) Plant preparation: A 50-cell tray was filled with Kureha gardening soil manufactured by Kureha Corporation (fertilizer components: N:P:K=0.4:1.9:0.6 g/kg soil), and seeds of a “Momotaro” tomato were sowed, thinly covered with Kureha gardening soil, and sufficiently watered to allow the seeds to sprout. When the leaves in the 2-leaf stage fully unfolded, the soil on the tomato roots was carefully washed away with running water, and a test was performed. (5) The chemicals used and the amount of a treatment solution applied were as in Example 1. (6) Amount of treatment solution applied: 10 ml/specimen for leaf spraying, 50 ml/specimen for fertigation Method of Drying Stress Tolerance Imparting Test Five tomato specimens as prepared above were planted in a 60-cm planter placed on a plant culture rack in an air-conditioned room. […] From immediately after planting the tomatoes, a treatment solution of Table 1 was sprayed onto the leaves or applied to the underground portions once a week. […] Five specimens (per planter) were prepared for each of the test plot and the control plots, plant bodies were collected 3 weeks after the beginning of the test such that the roots were not cut, the soil was washed away with running water, the fresh plant body-weights were measured, and a plant stress level and an extent of imparting plant stress tolerance were calculated according to Formula (ii) and (iii) above using the average of the weights.

“Momotaro” tomato [4] = test: Example 4 salt stress tolerance imparting test (tomato, tap water + NaCl); conditions: tap water + NaCl 3510 ppm, 2 weeks
Excerpt: NaCl concentration 3510 ppm (water potential by NaCl: […]) (4) Cultivation period: two weeks (5) Plant preparation: A 50-cell tray was filled with Kureha gardening soil manufactured by Kureha Corporation (fertilizer components: N:P:K=0.4:1.9:0.6 g/kg soil), and seeds of a “Momotaro” tomato were sowed, thinly covered with Kureha gardening soil, and sufficiently irrigated to allow the seeds to sprout. When the leaves in the 2-leaf stage fully unfolded, the soil on the tomato roots was carefully washed away with running water, and a test was performed. (6) The chemicals used and the concentration of a treatment solution were as in Example 1 (7) Amount of application: 10 ml/specimen for leaf spraying, 50 ml/specimen for fertigation Method of Salt Stress Tolerance Imparting Test […]

[5] = pF 2.3, leaf, 100 ppm once a week

POE (20) sorbitan monooleic acid ester [Product of present invention 1]
Extent of imparting plant stress tolerance (“Momotaro” tomato [1]; NaCl 1500 ppm, leaf, 100 ppm): 113%
Extent of imparting plant stress tolerance (“Momotaro” tomato [1]; NaCl 1500 ppm, underground portion, 100 ppm): 124%
Extent of imparting plant stress tolerance (“Momotaro” tomato [1]; NaCl 3510 ppm, leaf, 1 ppm): 111%
Extent of imparting plant stress tolerance (“Momotaro” tomato [1]; NaCl 3510 ppm, leaf, 10 ppm): 112%
Extent of imparting plant stress tolerance (“Momotaro” tomato [1]; NaCl 3510 ppm, leaf, 100 ppm): 113%
Extent of imparting plant stress tolerance (“Momotaro” tomato [1]; NaCl 3510 ppm, leaf, 1000 ppm): 118%
Extent of imparting plant stress tolerance (“Momotaro” tomato [1]; NaCl 3510 ppm, underground portion, 100 ppm): 130%
Extent of imparting plant stress tolerance (“Momotaro” tomato [1]; NaCl 5000 ppm, leaf, 100 ppm): 125%
Extent of imparting plant stress tolerance (“Momotaro” tomato [1]; NaCl 5000 ppm, underground portion, 100 ppm): 135%
Standard extent of imparting plant salt stress tolerance (“Momotaro” tomato [2]): 113%
Extent of imparting plant stress tolerance (“Momotaro” tomato [3]; pF 2.3, leaf, 1 ppm once a week): 112%
Extent of imparting plant stress tolerance (“Momotaro” tomato [3]; pF 2.3, leaf, 10 ppm once a week): 113%
Extent of imparting plant stress tolerance (“Momotaro” tomato [3]; [5]): 113%
Extent of imparting plant stress tolerance (“Momotaro” tomato [3]; pF 2.3, leaf, 1000 ppm once a week): 117%
Extent of imparting plant stress tolerance (“Momotaro” tomato [3]; pF 2.3, underground portion, 100 ppm once a week): 129%
Extent of imparting plant stress tolerance (“Momotaro” tomato [3]; pF 2.5, leaf, 100 ppm once a week): 117%
Extent of imparting plant stress tolerance (“Momotaro” tomato [3]; pF 2.5, underground portion, 100 ppm once a week): 128%
Extent of imparting plant stress tolerance (“Momotaro” tomato [3]; pF 2.9, leaf, 100 ppm once a week): 124%
Extent of imparting plant stress tolerance (“Momotaro” tomato [3]; pF 2.9, underground portion, 100 ppm once a week): 135%
Extent of imparting plant stress tolerance (“Momotaro” tomato [4]; leaf, 1 ppm): 112%
Extent of imparting plant stress tolerance (“Momotaro” tomato [4]; leaf, 10 ppm): 113%
Extent of imparting plant stress tolerance (“Momotaro” tomato [4]; leaf, 100 ppm): 113%
Extent of imparting plant stress tolerance (“Momotaro” tomato [4]; leaf, 1000 ppm): 119%
Extent of imparting plant stress tolerance (“Momotaro” tomato [4]; underground portion, 100 ppm): 130%

Sucrose fatty acid ester (C18, HLB = 11) [Product of present invention 19]
Extent of imparting plant stress tolerance (“Momotaro” tomato [1]; NaCl 3510 ppm, leaf, 100 ppm): 113%
Standard extent of imparting plant salt stress tolerance (“Momotaro” tomato [2]): 114%
Extent of imparting plant stress tolerance (“Momotaro” tomato [3]; [5]): 115%
Extent of imparting plant stress tolerance (“Momotaro” tomato [4]; leaf, 100 ppm): 114%

— patent publication US20110100079A1, “METHOD FOR IMPARTING STRESS TOLERANCE TO PLANT” (priority 2007, published 2011)
